These are literature values, as cited in patent US10314914B2, “Iodophor composition and methods of use” (Veloce BioPharma, LLC, priority 2015, dated 2019).

For this series the following is noted: 50% solution of DMSO in water.

`C[C@]12CCC(=O)C=C1CC[C@@H]1[C@@H]2[C@@H](O)C[C@@]2(C)[C@H]1CC[C@]2(O)C(=O)CO` [hydrocortisone]: the rate of penetration entry is on record as “markedly enhanced”.
